Test results as given in PubChem BioAssay (NCI).
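Assay format: 96-well plates, 48-hour exposure. TGI denotes the concentration required for complete inhibition of growth.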

Experiments:
Test in all cases: NCI tumour cell line growth inhibition, 48 h
KM20L2 colon = system: KM20L2 colon
LXFL 529 NSCLC = system: LXFL 529 NSCLC
SNB-78 CNS = system: SNB-78 CNS
P388 leukemia = system: P388 leukemia
HOP-18 NSCLC = system: HOP-18 NSCLC
SN12K1 renal = system: SN12K1 renal

Row | Compound | TGI (KM20L2 colon) | TGI (LXFL 529 NSCLC) | TGI (SNB-78 CNS) | TGI (P388 leukemia) | TGI (HOP-18 NSCLC) | TGI (SN12K1 renal)
1 | O=C(/C=C/CC(O)(c1ccccc1)c1ccccc1)Nc1ccccc1Cl | > 100 µM | > 100 µM | – | – | – | –
2 | O=C(CCl)Nc1ccc(C(=O)N/N=C/c2ccc(Cl)cc2)cc1 | 27.4 µM | 3.2 µM | 15.8 µM | – | – | –
3 | O=C(O)C(CS)N=Cc1nc(-c2ccccc2)oc1O (stereo not drawn) | > 100 µM | > 100 µM | > 100 µM | – | – | –
4 | CCc1nc2c([nH]1)C(=O)c1ccccc1C2=O | – | – | > 100 µM | – | – | –
5 | O=c1ccn([C@@H]2C=C(CO)[C@@H](O)[C@H]2O)c(=O)[nH]1 | > 625 µM | – | – | > 625 µM | > 625 µM | > 625 µM
